The values that follow come from PubChem BioAssay (NCI).

Holding throughout (assay): NCI tumour cell line growth inhibition, 48 h
Assay [1] concerns EKVX NSCLC.
Assay [2] deals with A549 NSCLC.
Assay [3] has as its system COLO 205 colon.
The test system of assay [4] is SNB-78 CNS.
Assay [5] has as its system UO-31 renal.
Assay [6] deals with DLD-1 colon.
In assay [7] the test system is MOLT-4 leukemia.
The subject of assay [8] is NCI-H522 lung.
In assay [9] the test system is MCF7 breast.
Assay [10] has as its system DU-145 prostate.

SMILES strings stand for the structures.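 Where inhibition never reached the appropriate level, the endpoint shown equals the highest concentration tested. Otherwise, values were interpolated linearly from a five-concentration, 48-hour dose response in 96-well plates. Here, GI50 denotes the concentration required for 50% inhibition of growth. The concentration for full growth arrest is given as TGI.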 Bounds are passed on as bounds.

For `COC(=O)/C=C/C1C(C(=O)OC)C2(C(=O)OC)CCC1(C(=O)OC)N2` (stereo not given), the TGI in assay [1], in assay [2], in assay [3], in [4], in assay [5] and in assay [6] was more than 100 µM throughout. Further, the TGI in [7] and in [8] was more than 100 µM throughout.
`O=C(Nc1ccc([N+](=O)[O-])cc1)C1C(=O)C(=O)N(c2ccc([N+](=O)[O-])cc2)C1=O` (stereo not given): the TGI in assay [1], in assay [2], in assay [3], in assay [4], in assay [5] and in assay [6] was more than 100 µM each time. Further, the TGI in [7] and in assay [8] was more than 100 µM in each case.
For the compound `O=C1CSC(Cc2nc3ccccc3[nH]2)=N1`, the TGI is 75.6 µM in [1]; 79.5 µM in assay [2]; 50 µM in [3]; more than 100 µM in assay [4]; 35 µM in assay [5]; 49 µM in assay [6]. The figures for the TGI in assay [7] and in assay [8] were more than 100 µM and 40.4 µM, respectively.
In the case of `CCCCCCCCCc1cc(=O)c2c(O)cccc2o1`, the TGI in assay [1], in [2], in [3], in [4], in [5] and in [6] was more than 100 µM each time. Besides, the TGI was 89.5 µM in assay [7] and more than 100 µM in assay [8].
Take `Cc1cc(C)n(CCNCCn2nc(C)cc2C)n1`: the TGI in assay [1], in assay [2], in [3], in assay [4], in [5] and in assay [6] was more than 100 µM each time. Also, the TGI in [7] and in assay [8] was more than 100 µM throughout.
For the compound `N#CC(C(=O)/C(=N/Nc1nc(=S)[nH]n1N)C(C#N)c1ccccc1)c1ccccc1` (stereo not given), the TGI in [1], in assay [9], in [2], in assay [3], in assay [4] and in assay [5] was more than 100 µM throughout. Besides, the TGI in [6], in [10] and in [8] was more than 100 µM in each case.
For the compound `CC(C)(C)N1CC2(CCCCC2)C1=O`, the TGI in assay [1], in assay [2], in [3], in [4], in assay [5] and in [6] was more than 100 µM throughout. Moreover, the TGI in assay [7] and in assay [8] was more than 100 µM each time.
Regarding `CC(=O)OCC1OC([S-])C(OC(C)=O)C(OC(C)=O)C1OC(C)=O.CC[PH+](CC)CC.CC[PH+](CC)CC.[Au].[Au]` (stereo not given), the GI50 in [1] was 0.405 µM; in assay [2], 1.72 µM; in assay [3], 0.198 µM; in [4], 0.311 µM; in assay [5] it was 1.6 µM; in assay [6] it was 0.174 µM. Moreover, the GI50 in assay [7] was 0.163 µM. Also, the TGI came to 0.921 µM in assay [1]; 4 µM in assay [2]; 0.391 µM in assay [3]; 2.79 µM in [4]; 2.98 µM in assay [5]; 0.49 µM in assay [6]. This compound also had a TGI in assay [7] of 0.52 µM.
In the case of `CCOC(=O)CCc1c(C)c2c(OC(C)=O)cc(OC(C)=O)cc2oc1=O`, the TGI in assay [1], in assay [2], in assay [3], in assay [4], in assay [5] and in [6] was more than 100 µM throughout. This compound registered a TGI in assay [8] of more than 100 µM.
With `N#CC(/C(=N/NC(=O)C(=O)NN)C(=O)NC12CC3CC(CC(C3)C1)C2)c1ccccc1` (stereo not given), the TGI in assay [1], in assay [2], in [3], in assay [4], in [5] and in [6] was more than 100 µM throughout. Further, the TGI in assay [7] and in assay [8] was more than 100 µM throughout.
For `O=C(CN1CCCCC1)N1CCc2c([nH]c3ccccc23)C1c1cccnc1` (stereo not given), the TGI in [1], in assay [2], in assay [4], in [5], in [6] and in assay [7] was more than 100 µM throughout. This compound also displayed a TGI in assay [8] of more than 100 µM.
`O=C(/C=C/c1c(O)ccc2ccccc12)c1ccc2ccccc2c1`: the TGI in assay [1], in assay [2], in assay [3], in [4], in assay [5] and in [6] was more than 100 µM in each case. Moreover, the TGI in assay [7] and in assay [8] was more than 100 µM throughout.
For the compound `NC1CCCC[C@H]1N.N[C@@H]1CCCC[C@@H]1N.O=C(P(=O)([O-])[O-])P(=O)([O-])[O-].[Pt+4].[Pt+4]`, the GI50 in assay [1], in assay [2], in [3], in assay [4], in [5] and in assay [6] was more than 100 µM each time. The GI50 in assay [7] was 16 µM; in assay [8], 11.9 µM. Besides, the TGI in assay [1], in assay [2], in assay [3], in assay [4], in assay [5] and in [6] was more than 100 µM in each case. The TGI in assay [7] is more than 100 µM; in assay [8] it was 47.4 µM.
For `N#CC1(C2SCCS2=O)C2=C(C(=O)c3ccccc3C2=O)N2CCCC21` (stereo not given), the TGI in assay [1] was found to be 13.9 µM; in assay [9] it was 3.73 µM; in [2], 6.26 µM; in [3], 5.71 µM; in assay [4], 6.89 µM; in [5], 14.2 µM. Besides, the TGI turned out to be 14.1 µM in assay [6], 4.93 µM in assay [10], 19.7 µM in [7] and 5.78 µM in assay [8].
Consider `O=C(CSc1nnc(-c2ccccc2NC(=O)C(F)(F)F)c(=O)[nH]1)NC(=O)Nc1ccccc1`, for which the TGI was more than 100 µM in assay [1]; more than 100 µM in assay [2]; more than 100 µM in assay [3]; more than 100 µM in [4]; more than 100 µM in assay [5]; 44.7 µM in assay [6]. The TGI in [7] and in assay [8] was more than 100 µM each time.
